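Where inhibition never reached the appropriate level, the endpoint shown equals the highest concentration tested. Otherwise, values were interpolated linearly from a five-concentration, 48-hour dose response in 96-well plates. At the GI50, growth is halved. TGI: total growth inhibition.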
How the values were obtained:
Test in all cases: NCI tumour cell line growth inhibition, 48 h
[1] = system: A549 NSCLC
[2] = system: CAKI-1 renal
[3] = system: HCC-2998 colon
[4] = system: NCI-H23 lung
[5] = system: SK-OV-3 ovarian
[6] = system: TK-10 renal
[7] = system: SR leukemia
[8] = system: UACC-62 melanoma
[9] = system: MDA-MB-231 breast
[10] = system: HOP-92 NSCLC

SMILES | GI50 [1] | TGI [1] | GI50 [2] | TGI [2] | GI50 [3] | TGI [3] | GI50 [4] | TGI [4] | GI50 [5] | TGI [5] | GI50 [6] | TGI [6] | TGI [7] | TGI [8] | GI50 [9] | TGI [9] | GI50 [7] | GI50 [8] | TGI [10] | GI50 [10]
CC(C)OP(=O)(OC(C)C)C(N(C)C)P(=O)(OC(C)C)OC(C)C.[Cl][Sn]([Cl])([Cl])[c]1ccccc1 | 2.21 µM | 5.28 µM | 3.7 µM | > 100 µM | 1.79 µM | 7.46 µM | 4.84 µM | 31.3 µM | 3.67 µM | 17.3 µM | 14.4 µM | > 100 µM | – | – | – | – | – | – | – | –
CC(=O)NC1C(OCc2ccccc2)OC(COC(=O)CCCCCCCCCCNC(=O)c2cccc3c(=O)c4ccccc4[nH]c23)C(O)C1OC(C)C(=O)NC(C)C(=O)NC(CCC(N)=O)C(N)=O (centres undefined) | – | > 100 µM | – | > 100 µM | – | – | – | > 100 µM | – | > 100 µM | – | > 100 µM | > 100 µM | > 100 µM | – | – | – | – | – | –
O=C1C=C(Nc2cccc(Br)c2)c2ccccc2C1=O | 1.54 µM | 12.3 µM | 4.16 µM | > 100 µM | 12.1 µM | > 100 µM | – | – | 6.42 µM | 30 µM | – | – | 40.3 µM | 18 µM | 1.51 µM | 36.5 µM | 10.2 µM | 2.96 µM | – | –
CC(C)c1ccc(/C=C(\NC(=O)c2ccccc2)c2nc3ccccc3[nH]2)cc1 | – | 82.5 µM | – | > 100 µM | – | – | – | 75.3 µM | – | > 100 µM | – | > 100 µM | – | > 100 µM | – | – | – | – | > 100 µM | –
CC(=O)[CH-]C(=O)c1ccccc1.CC(=O)[CH-]C(=O)c1ccccc1.[O]=[U+2]=[O] | 31 µM | > 100 µM | 39.2 µM | > 100 µM | 18.7 µM | 65.4 µM | 46.9 µM | > 100 µM | 68.5 µM | > 100 µM | 37.8 µM | > 100 µM | – | > 100 µM | – | – | – | 33.1 µM | > 100 µM | 39.9 µM
COC(=O)C(CC=O)C(=O)C(=O)Nc1cccc(C(F)(F)F)c1 (centres undefined) | – | > 100 µM | – | > 100 µM | – | > 100 µM | – | > 100 µM | – | > 100 µM | – | > 100 µM | > 100 µM | > 100 µM | – | – | – | – | > 100 µM | –
Clc1ccc2c(Cl)ncnc2c1 | – | > 100 µM | – | > 100 µM | – | > 100 µM | – | > 100 µM | – | > 100 µM | – | > 100 µM | > 100 µM | > 100 µM | – | – | – | – | > 100 µM | –
Cc1ccc([P+](Cc2ccc([N+](=O)[O-])cc2)(c2ccc(C)cc2)c2ccc(C)cc2)cc1 | 14.4 µM | 57 µM | 18 µM | 47.1 µM | 2.87 µM | 11.8 µM | – | – | 12 µM | 25.2 µM | – | – | 12.3 µM | 6.34 µM | 1.46 µM | 7.38 µM | 2.84 µM | 1.43 µM | – | –
CN1CCCC1c1cccnc1.O=C(O)c1ccccc1O.O=C([O-])c1ccccc1[OH2+].O=C([O-])c1ccccc1[OH2+].O=C([O-])c1ccccc1[OH2+].[Mn+2] (centres undefined) | > 100 µM | > 100 µM | > 100 µM | > 100 µM | – | – | > 100 µM | > 100 µM | > 100 µM | > 100 µM | > 100 µM | > 100 µM | – | > 100 µM | > 100 µM | > 100 µM | – | > 100 µM | > 100 µM | > 100 µM

— PubChem BioAssay (NCI)
